Assay results reported in publication PMC10547211, “Neuronal expression in Drosophila of an evolutionarily conserved metallophosphodiesterase reveals pleiotropic roles in longevity and odorant response” (PLOS Genetics, 2023).

Biological target: T1, dMpped (Drosophila melanogaster, UniProt Q9VT29)
T1 construct: gene Mpped; full-length coding region (300 residues) amplified from whole-fly cDNA; E. coli BL21DE3; gel filtration; about 37 kDa on gel
Test: colorimetric p-nitrophenol release, […] nm
Format: biochemical
Conditions: Mn2+ as metal cofactor (5 mM in standard assay); pH 9.0 triple buffer; 5 mM 2-mercaptoethanol; 10 mM NaCl

T1 sequence (Q9VT29 entry or part of it): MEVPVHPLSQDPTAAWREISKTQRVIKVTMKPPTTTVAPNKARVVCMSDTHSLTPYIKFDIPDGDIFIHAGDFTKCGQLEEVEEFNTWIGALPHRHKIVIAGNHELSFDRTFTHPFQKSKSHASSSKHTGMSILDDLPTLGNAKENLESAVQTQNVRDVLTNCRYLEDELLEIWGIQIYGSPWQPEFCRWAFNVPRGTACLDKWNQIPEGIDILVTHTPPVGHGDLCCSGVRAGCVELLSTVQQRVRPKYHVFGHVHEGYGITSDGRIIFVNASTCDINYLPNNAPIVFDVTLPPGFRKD

`O=[N+]([O-])c1ccc(OP(=O)(O)c2ccccc2)cc1` [pNPPP] gave a Km of ~10 mM.
